Source: patent US8952024B2, “Herbicidal pyrimidone derivatives” (E I du Pont de Nemours and Company, priority 2009, dated 2015)
Where two headings read alike, the source gives them in different places.

Assays:
Test in all cases: Test A pre-/postemergence plant response
Assay type in all cases: in vivo
[1] = system: pigweed (Amaranthus retroflexus); conditions: Amaranthus retroflexus, 240 h; for pest or weed control at 125 g/ha: 125 g ai/ha
How it was run: (§1)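 Greenhouse pots of loam/sand received directed preemergence soil sprays or postemergence sprays (plants 2–10 cm, 1–2 leaf stage), compounds formulated in non-phytotoxic solvent with surfactant. Injury was rated visually versus untreated controls after about ten days on a 0 (no effect) to 100 (complete control) scale.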

corn (Zea mays) = conditions: Zea mays, 240 h; for Corn plant response rating (crop injury, 0 = no effect, 100 = complete kill) at 500 g/ha: 500 g ai/ha
How it was run: as §1

[2] = system: giant foxtail (Setaria faberii); conditions: Setaria faberi, 240 h; for pest or weed control at 125 g/ha: 125 g ai/ha; for pest or weed control at 500 g/ha: 500 g ai/ha
How it was run: as §1

[3] = system: velvetleaf (Abutilon theophrasti); conditions: Abutilon theophrasti, 240 h; for pest or weed control at 125 g/ha: 125 g ai/ha; for pest or weed control at 500 g/ha: 500 g ai/ha
How it was run: as §1

[4] = system: barnyardgrass (Echinochloa crus-galli); conditions: Echinochloa crus-galli, 240 h; for pest or weed control at 125 g/ha: 125 g ai/ha; for pest or weed control at 500 g/ha: 500 g ai/ha
How it was run: as §1

[5] = system: morningglory (Ipomoea spp.); conditions: Ipomoea, 240 h; for pest or weed control at 125 g/ha: 125 g ai/ha; for pest or weed control at 500 g/ha: 500 g ai/ha
How it was run: as §1

[6] = system: large crabgrass (Digitaria sanguinalis); conditions: Digitaria sanguinalis, 240 h; for pest or weed control at 125 g/ha: 125 g ai/ha; for pest or weed control at 500 g/ha: 500 g ai/ha
How it was run: as §1

[7] = system: wheat (Triticum aestivum); conditions: Triticum aestivum, 240 h; for plant injury at 125 g/ha: 125 g ai/ha; for plant injury at 500 g/ha: 500 g ai/ha
How it was run: as §1

**Q.** What does the source list for `CCn1ncc(C(=O)c2cnc(-c3ccccc3)n(Cc3ccccc3)c2=O)c1O` [Compound 20, 5-[(1-ethyl-5-hydroxy-1H-pyrazol-4-yl)carbonyl]-2-phenyl-3-(phenylmethyl)-4(3H)-pyrimidinone]?
**A.** pest or weed control at 125 g/ha ([1]; post-emergence, Postemergence, visual injury, 0 to 100 scale (0 no effect, 100 complete control), approx. ten days, read-out: Pigweed plant response rating): 10%; pest or weed control at 500 g/ha ([1]; post-emergence, Postemergence, 500 g ai/ha, 0 to 100 scale, 0 = no effect, 100 = complete control, approx. ten days, read-out: Plant response rating, Pigweed): 50%; pest or weed control at 125 g/ha ([1]; pre-emergence, Preemergence, 0 to 100 scale, 0 = no effect, 100 = complete control, read-out: Plant response rating, Pigweed): 0%; plant injury at 125 g/ha (corn (Zea mays); post-emergence, Postemergence, 125 g ai/ha, visual injury, 0 to 100 scale (0 no effect, 100 complete control), approx. ten days, read-out: Corn plant response rating): 0%; Corn plant response rating (crop injury, 0 = no effect, 100 = complete kill) at 500 g/ha (corn (Zea mays); post-emergence, Postemergence, 0 to 100 scale, 0 = no effect, 100 = complete control, approx. ten days): 10%; Corn plant response rating (crop injury, 0 = no effect, 100 = complete kill) at 125 g/ha (corn (Zea mays); pre-emergence, Preemergence, 125 g ai/ha, 0 to 100 scale, 0 = no effect, 100 = complete control): 0%; Corn plant response rating (crop injury, 0 = no effect, 100 = complete kill) at 500 g/ha (corn (Zea mays); pre-emergence, Preemergence, visual injury, 0 to 100 scale (0 no effect, 100 complete control), approx. ten days): 0%; pest or weed control at 125 g/ha ([2]; post-emergence, Postemergence, visual injury, 0 to 100 scale (0 no effect, 100 complete control), approx. ten days, read-out: Foxtail, Giant plant response rating): 0%; pest or weed control at 500 g/ha ([2]; post-emergence, Postemergence, 0 to 100 scale, 0 = no effect, 100 = complete control, approx. ten days, read-out: Plant response rating, Foxtail, Giant): 0%; pest or weed control at 125 g/ha ([2]; pre-emergence, Preemergence, 0 to 100 scale, 0 = no effect, 100 = complete control, read-out: Plant response rating, Foxtail, Giant): 0%; pest or weed control at 500 g/ha ([2]; pre-emergence, Preemergence, visual injury, 0 to 100 scale (0 no effect, 100 complete control), approx. ten days, read-out: Plant response rating, Foxtail, Giant): 20%; pest or weed control at 125 g/ha ([3]; post-emergence, Postemergence, visual injury, 0 to 100 scale (0 no effect, 100 complete control), approx. ten days, read-out: Velvetleaf plant response rating): 20%; pest or weed control at 500 g/ha ([3]; post-emergence, Postemergence, 0 to 100 scale, 0 = no effect, 100 = complete control, approx. ten days, read-out: Plant response rating, Velvetleaf): 70%; pest or weed control at 125 g/ha ([3]; pre-emergence, Preemergence, 0 to 100 scale, 0 = no effect, 100 = complete control, read-out: Plant response rating, Velvetleaf): 0%; pest or weed control at 500 g/ha ([3]; pre-emergence, Preemergence, visual injury, 0 to 100 scale (0 no effect, 100 complete control), approx. ten days, read-out: Plant response rating, Velvetleaf): 50%; pest or weed control at 125 g/ha ([4]; post-emergence, Postemergence, visual injury, 0 to 100 scale (0 no effect, 100 complete control), approx. ten days, read-out: Barnyardgrass plant response rating): 0%; pest or weed control at 500 g/ha ([4]; post-emergence, Postemergence, 0 to 100 scale, 0 = no effect, 100 = complete control, approx. ten days, read-out: Plant response rating, Barnyardgrass): 10%; pest or weed control at 125 g/ha ([4]; pre-emergence, Preemergence, 0 to 100 scale, 0 = no effect, 100 = complete control, read-out: Plant response rating, Barnyardgrass): 0%; pest or weed control at 500 g/ha ([4]; pre-emergence, Preemergence, visual injury, 0 to 100 scale (0 no effect, 100 complete control), approx. ten days, read-out: Plant response rating, Barnyardgrass): 20%; pest or weed control at 125 g/ha ([5]; post-emergence, Postemergence, visual injury, 0 to 100 scale (0 no effect, 100 complete control), approx. ten days, read-out: Morningglory plant response rating): 0%; pest or weed control at 500 g/ha ([5]; post-emergence, Postemergence, 0 to 100 scale, 0 = no effect, 100 = complete control, approx. ten days, read-out: Plant response rating, Morningglory): 10%; pest or weed control at 125 g/ha ([5]; pre-emergence, Preemergence, 0 to 100 scale, 0 = no effect, 100 = complete control, read-out: Plant response rating, Morningglory): 0%; pest or weed control at 500 g/ha ([5]; pre-emergence, Preemergence, visual injury, 0 to 100 scale (0 no effect, 100 complete control), approx. ten days, read-out: Plant response rating, Morningglory): 0%; pest or weed control at 125 g/ha ([6]; post-emergence, Postemergence, visual injury, 0 to 100 scale (0 no effect, 100 complete control), approx. ten days, read-out: Crabgrass, Large plant response rating): 0%; pest or weed control at 500 g/ha ([6]; post-emergence, Postemergence, 0 to 100 scale, 0 = no effect, 100 = complete control, approx. ten days, read-out: Plant response rating, Crabgrass, Large): 10%; pest or weed control at 125 g/ha ([6]; pre-emergence, Preemergence, 0 to 100 scale, 0 = no effect, 100 = complete control, read-out: Plant response rating, Crabgrass, Large): 0%; pest or weed control at 500 g/ha ([6]; pre-emergence, Preemergence, visual injury, 0 to 100 scale (0 no effect, 100 complete control), approx. ten days, read-out: Plant response rating, Crabgrass, Large): 30%; plant injury at 125 g/ha ([7]; post-emergence, Postemergence, visual injury, 0 to 100 scale (0 no effect, 100 complete control), approx. ten days, read-out: Wheat plant response rating): 0%; plant injury at 500 g/ha ([7]; post-emergence, Postemergence, 0 to 100 scale, 0 = no effect, 100 = complete control, approx. ten days, read-out: Plant response rating, Wheat): 0%; plant injury at 125 g/ha ([7]; pre-emergence, Preemergence, 0 to 100 scale, 0 = no effect, 100 = complete control, read-out: Plant response rating, Wheat): 0%; plant injury at 500 g/ha ([7]; pre-emergence, Preemergence, visual injury, 0 to 100 scale (0 no effect, 100 complete control), approx. ten days, read-out: Plant response rating, Wheat): 0%
